Measured values published in patent US20220192192A1, “LOW VOLATILITY HERBICIDAL COMPOSITIONS” (Monsanto Technology LLC, priority 2012, published 2022).

Assay: Measurement of dicamba volatility (humidome): dicamba concentration in air by LC-MS
Type: physicochemical
Conditions: di- and tri-carboxylic acids tested in dicamba compositions
Text: Humidomes obtained from Hummert International (Part Nos 14-3850-2 for humidomes and 11-3050-1 for 1020 flat tray) were modified by cutting a 2.2 cm diameter hole on one end approximately 5 cm from the top to allow for insertion of a glass air sampling tube (22 mm OD) containing a polyurethane foam (PUF) filter. The sampling tube was secured with a VITON o-ring on each side of the humidome wall. The air sampling tube external to the humidome was fitted with tubing that was connected to a vacuum manifold immediately prior to sampling. […] The flat tray bottom containing the dicamba formulation on soil was covered with the humidome lid and the lid was secured with clamps. The assembled humidomes were placed in a temperature and humidity controlled environment and connected to a vacuum manifold through the air sampling line. Air was drawn through the humidome and PUF at a rate of 2 liters per minute (LPM) for 24 hours at which point the air sampling was stopped. The humidomes were then removed from the controlled environment and the PUF filter was removed. The PUF filter was extracted with 20 mL of methanol and the solution was analyzed for dicamba concentration using LC-MS methods known in the art. […] Where glyphosate was added or was part of the formulation, glyphosate was present at a concentration of 2.4% a.e. or 2.0 lb/A a.e. Where 2,4-D was added or was part of the formulation, 2,4-D was present at 2.4% ae or 2.0 lb/A ae at 10 gallons per acre (GPA). The growth chambers were set at 35° C. and 40% relative humidity (RH). For each composition four separate humidome boxes were sprayed to have 4 replicate measurements for each formulation. Tables 3-1 to 3-12 below provide the mean concentration of dicamba in air for the tested formulations.

Effect of the acid on dicamba volatility, did not reduce dicamba volatility:
O=C(O)CC(O)(CC(=O)O)C(=O)O [citric acid], O=C(O)CC(O)C(=O)O (stereo not shown) [malic acid], O=C(O)C(=O)O [oxalic acid], O=C(O)CCC(=O)O [succinic acid]
